These results are taken from ChEMBL document CHEMBL5365544, “Design, synthesis of auristatins-glucuronide conjugates targeting the β-glucuronidase in tumor microenvironment” (Bioorg Med Chem Lett, 2023).

The IC50 is the concentration needed to halve the response being measured.

Data set [1] in a line: Toxicity in BALB/c mouse assessed as side effect at 2 to 4 mg/kg, iv administered every 3 days. The class given is organism-based. Conditions: in vivo, 72 h, dose 2-4 mg/kg, time 3 day.
For data set [2], the system named is A549. Kind of data set: Antiproliferative activity against human A549 cells assessed as inhibition of cell growth. Type of data set: functional, cell-based.
Data set [3] in a line: Chemical stability of compound in phosphate buffer at pH 7.4 for 37 degC assessed as drug degradation measured after 20 mins in presence of beta-glucuronidase by HPLC method relative to control. The class given is physicochemical. Conditions: phosphate buffer with beta-glucuronidase, read-out: Drug degradation.
Data set [4] relates to HCT-116. The data set can be described thus: Antiproliferative activity against human HCT-116 cells assessed as inhibition of cell growth. The class given is functional, cell-based.
Data set [5] is described as follows: Chemical stability of compound in phosphate buffer at pH 7.4 for 37 degC assessed as drug degradation measured after 2 hrs in presence of beta-glucuronidase by HPLC method. Type of data set: physicochemical. Conditions: pH 7.4, 2 h.
Data set [6] relates to HeLa. Kind of data set: Antiproliferative activity against human HeLa cells assessed as inhibition of cell growth. The class given is functional, cell-based.
Data set [7] deals with HCT-116. Kind of data set: Antitumor activity against human HCT-116 cells xenografted in BALB/C mouse assessed as tumor growth inhibition at 0.5 mg/kg, iv administered every 5 days. Conditions: time 5.0 day. Type of data set: functional, organism-based. For orientation: In xenograft studies the graft and the host belong to different species.
Data set [8] deals with A549. Kind of data set: Antiproliferative activity against human A549 cells assessed as inhibition of cell growth in presence of beta-glucuronidase. Type of data set: functional, cell-based.
Data set [9] deals with HCT-116. Kind of data set: Antiproliferative activity against human HCT-116 cells assessed as inhibition of cell growth in presence of beta-glucuronidase. Type of data set: functional, cell-based.
Data set [10] in a line: Stability of compound in bovine serum solution for 37 degC assessed as degradation measured after 48 hrs by HPLC method. Type of data set: ADME, cell-free, Bos taurus. Conditions: cattle.
Data set [11] deals with HeLa. The data set can be described thus: Antiproliferative activity against human HeLa cells assessed as inhibition of cell growth in presence of beta-glucuronidase. The class given is functional, cell-based.
Data set [12] can be described thus: Chemical stability of compound in phosphate buffer at pH 7.4 for 37 degC assessed as degradation measured after 48 hrs by HPLC method. Conditions: pH 7.4, 48 h. The class given is physicochemical.
Data set [13] relates to HCT-116. The data set can be described thus: Antitumor activity against human HCT-116 cells xenografted in iv dosed BALB/C mouse assessed as tumor growth inhibition administered every 5 days. The class given is functional, organism-based. Conditions: dose 2-4 mg/kg, time 5.0 day.
Data set [14] is described as follows: Toxicity in BALB/c mouse assessed as body weight loss at 2 to 4 mg/kg, iv administered every 3 days. Type of data set: organism-based. Conditions: in vivo, 72 h, dose 2-4 mg/kg, time 3 day.

The source made the active and inactive calls. The rule behind the calls is not given here.

As for `CC[C@H](C)[C@@H]([C@@H](CC(=O)N1CCC[C@H]1[C@H](OC)[C@@H](C)C(=O)N[C@H](C)[C@@H](O)c1ccccc1)OC)N(C)C(=O)[C@@H](NC(=O)[C@H](C(C)C)N(C)C)C(C)C`, the Activity entry in data set [1] is recorded as “Non-Toxic”. The figures for the IC50 in the data set with A549 [2], in the data set with HCT-116 [4] and with HeLa [6] were 5.03 nM, 4.96 nM and 4.89 nM, respectively. The metabolised at 20 min in [3] stood at 37%. The Stability entry in [5] is recorded as “Unstable”. In the data set with HCT-116 [7], the outcome was Active.
For the compound `CC[C@H](C)[C@@H]([C@@H](CC(=O)N1CCC[C@H]1[C@H](OC)[C@@H](C)C(=O)N[C@H](C)[C@@H](OC(=O)N(C)CCN(C)C(=O)OCc1ccc(O[C@@H]2O[C@H](C(=O)O)[C@@H](O)[C@H](O)[C@H]2O)c([N+](=O)[O-])c1)c1ccc(F)cc1)OC)N(C)C(=O)[C@@H](NC(=O)[C@H](C(C)C)N(C)C)C(C)C`, the IC50 in the data set on A549 [8] came out at 9.68 nM; in the data set on HCT-116 [9], 9.11 nM; in the data set on A549 [2], 1020 nM; in the data set on HCT-116 [4] it was 1110 nM; with HeLa [11] it was 8.3 nM; with HeLa [6] it was 990 nM. Besides, the Stability result in data set [10] and in data set [12] was “Stable” in each case.
On to `CC[C@H](C)[C@@H]([C@@H](CC(=O)N1CCC[C@H]1[C@H](OC)[C@@H](C)C(=O)N[C@H](C)[C@@H](O)c1ccc(F)cc1)OC)N(C)C(=O)[C@@H](NC(=O)[C@H](C(C)C)N(C)C)C(C)C`, for which the IC50 with A549 [2] stood at 5.52 nM; with HCT-116 [4], 6.13 nM; in the data set with HeLa [6], 4.87 nM.
Take `CC[C@H](C)[C@@H]([C@@H](CC(=O)N1CCC[C@H]1[C@H](OC)[C@@H](C)C(=O)N[C@H](C)[C@@H](OC(=O)N(C)CCN(C)C(=O)OCc1ccc(O[C@@H]2O[C@H](C(=O)O)[C@@H](O)[C@H](O)[C@H]2O)c([N+](=O)[O-])c1)c1ccccc1)OC)N(C)C(=O)[C@@H](NC(=O)[C@H](C(C)C)N(C)C)C(C)C`: the IC50 in the data set on A549 [8] was determined as 6.38 nM; with HCT-116 [9], 6.61 nM; in the data set on A549 [2], 1520 nM; in the data set with HCT-116 [4], 1490 nM; with HeLa [11], 5.73 nM; with HeLa [6] it was 1650 nM. Moreover, the figures for the Activity entry (in the data set with HCT-116 [13]; in data set [14]) were “Dose-Dependent Effect” and “Non-Toxic”, respectively. The figures for the Stability result in data set [10], in [5] and in data set [12] were “Stable”, “Unstable” and “Stable”, respectively. In addition, the metabolised at 20 min in data set [3] turned out to be 48%.
